# Where a name gives a salt, the structure may show the parent alone.
# System: not given
# Experiment: not given
# Conditions: not given
row,SMILES,melting point
1,"CCN1CCCC1CNC(=O)Cc1ccc(-c2ccc3c(=O)c(-c4ncc[nH]4)c(N)n(CC)c3n2)cc1F (stereo not shown) [Compound 56, 2-{4-[7-Amino-8-ethyl-6-(1H-imidazol-2-yl)-5-oxo-5,8-dihydro-[1,8]naphthyridin-2-yl]-2-fluoro-phenyl}-N-(1-ethyl-pyrrolidin-2-ylmethyl)-acetamide]",100 °C
2,"Nc1c(-c2ncc[nH]2)c(=O)c2ccc(-c3ccc(CC(=O)NCc4ccncc4)cc3)nc2n1CC1CC1 (as salt: TFA) [Compound 51, 2-{4-[7-Amino-8-cyclopropylmethyl-6-(1H-imidazol-2-yl)-5-oxo-5,8-dihydro-[1,8]naphthyridin-2-yl]-phenyl}-N-pyridin-4-ylmethyl-acetamide]",118 °C
3,"CCn1c(N)c(-c2ncc[nH]2)c(=O)c2ccc(-c3ccc(C(C)C(=O)NCc4ccncc4)cc3)nc21 (stereo not shown) [Compound 47, 2-{4-[7-Amino-8-ethyl-6-(1H-imidazol-2-yl)-5-oxo-5,8-dihydro-[1,8]naphthyridin-2-yl]-phenyl}-N-pyridin-4-ylmethyl-propionamide]",186 °C
4,"CCn1c(N)c(-c2nc(C)c[nH]2)c(=O)c2ccc(-c3ccc(CC(=O)NCc4ccncc4)cc3)nc21 (as salt: salt) [Compound 50, 2-{4-[7-Amino-8-ethyl-6-(4-methyl-1H-imidazol-2-yl)-5-oxo-5,8-dihydro-[1,8]naphthyridin-2-yl]-phenyl}-N-pyridin-4-ylmethyl-acetamide]",144 °C
5,"CCn1c(N)c(-c2ncc[nH]2)c(=O)c2ccc(-c3ccc(CC(=O)NCc4ccncc4)nc3)nc21 (as salt: TFA) [Compound 53, 2-{5-[7-Amino-8-ethyl-6-(1H-imidazol-2-yl)-5-oxo-5,8-dihydro-[1,8]naphthyridin-2-yl]-pyridin-2-yl}-N-pyridin-4-ylmethyl-acetamide]",120 °C
6,"CCn1c(N)c(-c2ncc[nH]2)c(=O)c2ccc(-c3ccc(CCCC(=O)NCc4ccncc4)cc3)nc21 [Compound 49, 4-{4-[7-Amino-8-ethyl-6-(1H-imidazol-2-yl)-5-oxo-5,8-dihydro-[1,8]naphthyridin-2-yl]-phenyl}-N-pyridin-4-ylmethyl-butyramide]",240 °C
7,"CCn1c(N)c(-c2ncc[nH]2)c(=O)c2ccc(-c3ccc(CC(=O)Nc4ccccn4)cn3)nc21 (as salt: HCl) [Compound 2, 2-{6-[7-Amino-8-ethyl-6-(1H-imidazol-2-yl)-5-oxo-5,8-dihydro-[1,8]naphthyridin-2-yl]-pyridin-3-yl}-N-pyridin-2-yl-acetamide]",200 °C
8,"CCn1c(N)c(-c2ncc[nH]2)c(=O)c2ccc(-c3ccc(CC(=O)NCC4COCCN4C4CC4)cc3)nc21 (stereo not shown) (as salt: HCl) [Compound 3, 2-{4-[7-Amino-8-ethyl-6-(1H-imidazol-2-yl)-5-oxo-5,8-dihydro-[1,8]naphthyridin-2-yl]-phenyl}-N-(4-cyclopropyl-morpholin-3-ylmethyl)-acetamide]",210 °C

# Biological target: T1, Flt-3 receptor (constitutively active mutant Flt3ITD, MV4-11 cell line) (Homo sapiens, UniProt P36888, INS600HVDFREYEYD)
# T1 construct: bearing a constitutively active mutant Flt3ITD; endogenous in cells; host or cells: MV4-11
# T1 sequence (P36888 with tags, fused parts or gaps INS600HVDFREYEYD): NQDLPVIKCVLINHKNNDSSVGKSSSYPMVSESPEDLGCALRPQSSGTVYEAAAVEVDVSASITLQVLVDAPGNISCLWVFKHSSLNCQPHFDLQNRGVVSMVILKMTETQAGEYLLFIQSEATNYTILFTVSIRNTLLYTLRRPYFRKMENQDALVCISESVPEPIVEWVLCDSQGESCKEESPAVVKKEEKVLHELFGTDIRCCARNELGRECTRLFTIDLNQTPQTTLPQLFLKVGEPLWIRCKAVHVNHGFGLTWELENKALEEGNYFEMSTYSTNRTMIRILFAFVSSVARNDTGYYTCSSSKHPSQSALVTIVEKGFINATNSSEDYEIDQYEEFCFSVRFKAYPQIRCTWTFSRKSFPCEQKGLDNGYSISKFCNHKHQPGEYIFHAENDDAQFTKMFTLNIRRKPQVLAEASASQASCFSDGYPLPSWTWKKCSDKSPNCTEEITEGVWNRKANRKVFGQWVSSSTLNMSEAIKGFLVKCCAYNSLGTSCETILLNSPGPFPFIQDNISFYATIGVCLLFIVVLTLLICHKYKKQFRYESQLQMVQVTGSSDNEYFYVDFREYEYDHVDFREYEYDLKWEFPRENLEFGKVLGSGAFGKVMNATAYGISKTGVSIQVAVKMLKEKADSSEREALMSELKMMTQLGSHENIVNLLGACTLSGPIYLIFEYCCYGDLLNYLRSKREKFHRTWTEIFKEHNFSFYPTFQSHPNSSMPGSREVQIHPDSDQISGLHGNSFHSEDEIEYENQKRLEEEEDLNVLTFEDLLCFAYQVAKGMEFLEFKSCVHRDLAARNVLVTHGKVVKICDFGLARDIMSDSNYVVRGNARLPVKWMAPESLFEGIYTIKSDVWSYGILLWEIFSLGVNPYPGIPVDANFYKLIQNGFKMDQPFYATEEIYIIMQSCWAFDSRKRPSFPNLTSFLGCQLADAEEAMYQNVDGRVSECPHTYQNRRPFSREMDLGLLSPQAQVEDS
# Experiment: Inhibition of proliferation of MV4-11 cells (tyrosine kinase activity of Flt-3 receptor), CellTiter-Glo, 72 h
# Type: cell-based
# Conditions: 72 h incubation, cellular ATP, read-out: IC50 (concentration that inhibits 50% of the proliferation of the MV4-11 cells)
# Experimental: (§1) The inhibitory activity with respect to PDGF or Flt-3 receptors is given by the concentration that inhibits 50% of the proliferation activity of cells Baf3 tel/PDGF or MV4-11, respectively.
# Measurement of Inhibition of the Tyrosine Kinase Activity of the Flt-3 Receptor
# The inhibitory effect of the compounds according to the invention on the tyrosine kinase activity of the Flt-3 receptor was evaluated on the MV4-11 cell line, a line established from a leukaemia of the AML type and bearing a constitutively active mutant Flt3ITD. The inhibitory activity is correlated with inhibition of cell growth, according to the protocols described by SPIEKERMANN, K. et al., Blood, 2003, 101, (4) 1494-1504 and O'FARRELL, A.-M. et al., Blood, 2003, 101, (9) 3597-3605.
# (§2) The MV4-11 cells are washed with PBS buffer and seeded in 96-well plates, at a density of 1.10^5 cells/ml (100 μl per well), in RPMI 1640 containing 10% of FCS, in the presence or absence of the test compounds. After incubation for 72 h, viable cells are quantified by measurement of cellular ATP using the CellTiter-Glo® kit (Promega, Cat G7571). The cells are treated according to the instructions given by the supplier of the kit and the luminescence is measured using a Luminoskan (Ascent, Labsystem) with the following parameters: measurement: single; integration time: 1000 ms, lag time: 5 s.
# The inhibitory activity with respect to the Flt-3 receptor is given by the concentration that inhibits 50% of the proliferation of the MV4-11 cells.
row,SMILES,IC50
1,"CCn1c(N)c(-c2ncc[nH]2)c(=O)c2ccc(-c3ccc(CC(=O)Nc4ncc(Cl)s4)cc3)nc21 [Compound 26, 2-{4-[7-Amino-8-ethyl-6-(1H-imidazol-2-yl)-5-oxo-5,8-dihydro-[1,8]naphthyridin-2-yl]-phenyl}-N-(5-chloro-thiazol-2-yl)-acetamide]",95 nM

# Biological target: T2, fusion protein Tel/PDGF-R beta (PDGF beta receptor) in BaF/3 cells (Homo sapiens, UniProt P09619)
# T2 construct: the transmembrane and intracellular part of the PDGF-R beta receptor; expressed in transfected cells; host or cells: murine haematopoietic cell line BaF/3; the other entry of the earlier key: ETV6 (P41212, Transcription factor ETV6)
# T2 sequence (P09619 with tags, fused parts or gaps): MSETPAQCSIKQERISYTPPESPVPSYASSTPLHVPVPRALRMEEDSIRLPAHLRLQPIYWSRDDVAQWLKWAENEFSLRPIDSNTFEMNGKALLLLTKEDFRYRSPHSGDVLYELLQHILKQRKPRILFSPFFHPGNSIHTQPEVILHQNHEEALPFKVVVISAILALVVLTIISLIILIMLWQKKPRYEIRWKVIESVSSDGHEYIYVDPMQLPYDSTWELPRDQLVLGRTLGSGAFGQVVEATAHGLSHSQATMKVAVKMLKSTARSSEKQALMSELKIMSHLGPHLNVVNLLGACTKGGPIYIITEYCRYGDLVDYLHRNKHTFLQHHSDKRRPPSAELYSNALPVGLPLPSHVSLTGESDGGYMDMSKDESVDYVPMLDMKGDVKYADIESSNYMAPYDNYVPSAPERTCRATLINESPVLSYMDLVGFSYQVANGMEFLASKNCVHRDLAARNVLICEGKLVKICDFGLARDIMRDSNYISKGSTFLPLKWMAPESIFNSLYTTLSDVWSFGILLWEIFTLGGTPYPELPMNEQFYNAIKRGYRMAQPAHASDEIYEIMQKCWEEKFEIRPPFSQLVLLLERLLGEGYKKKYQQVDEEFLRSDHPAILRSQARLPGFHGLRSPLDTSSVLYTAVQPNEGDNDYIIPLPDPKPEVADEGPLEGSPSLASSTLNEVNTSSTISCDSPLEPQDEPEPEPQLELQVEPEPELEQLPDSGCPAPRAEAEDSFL
# Experiment: Inhibition of proliferation of BaF3 Tel/PDGF cells (tyrosine kinase activity of PDGF-R beta), CellTiter-Glo, 72 h
# Type: cell-based, murine
# Conditions: 72 h incubation, cellular ATP, read-out: IC50 (concentration that inhibits 50% of the proliferation of Baf3 tel/PDGF cells)
# From the text: as §1
# Measurement of Inhibition of the Tyrosine Kinase Activity of the Receptor to PDGF Beta (PDGF-Rβ) (Baf-3 tel/PDGFRβ):
# This test consists of evaluating the effects of the compounds on the tyrosine kinase activity of the PDGF beta receptor.
# The inhibitory effect of the compounds according to the invention on the tyrosine kinase activity of the PDGF-R receptor was evaluated on the murine haematopoietic cell line BaF/3 transfected with a plasmid coding for the fusion protein Tel/PDGF-R beta. This fusion protein is found in chronic myeloid myelomonocytic leukaemias (CMML). It comprises the N-terminal part of the transcription factor Tel and the transmembrane and intracellular part of the PDGF-R beta receptor. This fusion protein is present in dimerized form (presence of an oligomerization domain in the N-terminal part of Tel) and accordingly leads to the constitutive activity of the kinase domain of PDGF-R beta.
# as §2, with “The BaF3 Tel/PDGF” for “The MV4-11”, “with phosphate” for “with PBS”, “of 5.10^4” for “of 1.10^5”, “([…]” for “(100 μl”, “h, the” for “h,”, “measured with” for “measured using”
# It thus appears that the compounds according to the invention have an inhibitory activity on the tyrosine kinase activity of PDGF-R beta. This activity is given by the concentration that inhibits 50% of the proliferation of Baf3 tel/PDGF cells (IC50).
row,SMILES,IC50
1,"CCn1c(N)c(-c2ncc[nH]2)c(=O)c2ccc(-c3ccc(CC(=O)Nc4ccccn4)cn3)nc21 [Compound 2, 2-{6-[7-Amino-8-ethyl-6-(1H-imidazol-2-yl)-5-oxo-5,8-dihydro-[1,8]naphthyridin-2-yl]-pyridin-3-yl}-N-pyridin-2-yl-acetamide]",7.9 nM
2,"Nc1c(-c2ncc[nH]2)c(=O)c2ccc(-c3ccc(CC(=O)NCc4ccncc4)cc3)nc2n1CC1CC1 [Compound 51, 2-{4-[7-Amino-8-cyclopropylmethyl-6-(1H-imidazol-2-yl)-5-oxo-5,8-dihydro-[1,8]naphthyridin-2-yl]-phenyl}-N-pyridin-4-ylmethyl-acetamide]",8.9 nM
3,"CCN1CCCC1CNC(=O)Cc1ccc(-c2ccc3c(=O)c(-c4ncc[nH]4)c(N)n(CC)c3n2)c(C)c1 (stereo not shown) [Compound 9, 2-{4-[7-Amino-8-ethyl-6-(1H-imidazol-2-yl)-5-oxo-5,8-dihydro-[1,8]naphthyridin-2-yl]-3-methyl-phenyl}-N-(1-ethyl-pyrrolidin-2-ylmethyl)-acetamide]",9.8 nM
4,"CCn1c(N)c(-c2ncc[nH]2)c(=O)c2ccc(-c3ccc(CC(=O)Nc4nnc(C)s4)cc3)nc21 [Compound 14, 2-{4-[7-Amino-8-ethyl-6-(1H-imidazol-2-yl)-5-oxo-5,8-dihydro-[1,8]naphthyridin-2-yl]-phenyl}-N-(5-methyl-[1,3,4]thiadiazol-2-yl)-acetamide]",2.4 nM
5,"CCn1c(N)c(-c2ncc[nH]2)c(=O)c2ccc(-c3ccc(CC(=O)NCCCc4ccccc4)cc3)nc21 [Compound 55, 2-{4-[7-Amino-8-ethyl-6-(1H-imidazol-2-yl)-5-oxo-5,8-dihydro-[1,8]naphthyridin-2-yl]-phenyl}-N-(3-phenyl-propyl)-acetamide]",5.9 nM
6,"Nc1c(-c2ncc[nH]2)c(=O)c2ccc(-c3ccc(CC(=O)NCc4ccncc4)cc3)nc2n1C1CCCC1 [Compound 52, 2-{4-[7-Amino-8-cyclopentyl-6-(1H-imidazol-2-yl)-5-oxo-5,8-dihydro-[1,8]naphthyridin-2-yl]-phenyl}-N-pyridin-4-ylmethyl-acetamide]",13.6 nM
7,"CCn1c(N)c(-c2ncc[nH]2)c(=O)c2ccc(-c3ccc(CC(=O)Nc4ccc(C)nc4)cc3)nc21 [Compound 10, 2-{4-[7-Amino-8-ethyl-6-(1H-imidazol-2-yl)-5-oxo-5,8-dihydro-[1,8]naphthyridin-2-yl]-phenyl}-N-(6-methyl-pyridin-3-yl)-acetamide]",2.5 nM

# From US8623893B2, “Pyridino-pyridinone derivatives, preparation and therapeutic use thereof” (SANOFI, priority 2009, dated 2014)
